In the METLIN SMRT retention time set (Domingo-Almenara et al. 2019):

Assay: gradient 5% acetonitrile 3 min, to 50% in 2 min, to 85% in 15 min, held 3 min, 100 µL/min
Conditions: column: Zorbax Extend-C18 2.1 x 50 mm; eluents: water / acetonitrile, 0.1% formic acid
Method in brief: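 Data were gathered over 3 months by HPLC coupled to a quadrupole time-of-flight mass spectrometer, operated in positive and negative ionization mode. Mixtures of ~100 pure standards ran on a Zorbax Extend-C18 column (2.1 × 50 mm, 1.8 μm) at 100 μL/min, with water and acetonitrile each containing 0.1% formic acid and dead and dwell volumes of 40 μL and 900 μL. Retention time was read from adduct peaks picked by computer and checked manually.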

RP-LC retention time | SMILES
571 s | COCCNC(=O)N1CCC(C(=O)NCC(F)(F)F)CC1
767 s | Cc1nnc(-c2coc(S(=O)(=O)N3CCCCC3)c2)o1
958 s | COCC(=O)N(CCC(C)C)CC(=O)N1CCc2sccc2C1COc1ccccc1F (stereo not drawn)
630 s | CC(C)(c1cc(Cl)c(O)c(CN2CCOCC2)c1)c1cc(Cl)c(O)c(CN2CCOCC2)c1
775 s | O=C(COc1cccc(C(F)(F)F)c1)Nc1cc(N2CCOCC2)ncn1
805 s | CCCCN1C(=O)CN(S(=O)(=O)c2ccccc2)CC1(C)C(=O)NCc1ccc(C)cc1 (stereo not drawn)
610 s | CCN1CCN(CCNC(=O)c2cc3n(n2)CCCN(Cc2ccc(Cl)cc2)C3=O)CC1
681 s | Cc1ccc2nc(-c3ccc(C)c(NC(=O)c4cccs4)c3)[nH]c2c1
599 s | COc1ccc2nc(NCCn3cccn3)sc2c1
659 s | CNC(=O)c1cc(-c2ccc(F)cc2)n[nH]1
717 s | O=C(NCC1CC(=O)N(c2ccc3c(c2)OCO3)C1)Nc1ccccc1C(F)(F)F (stereo not drawn)
714 s | CCN(CC)C(=O)C1CCCN1S(=O)(=O)c1cc2c(cc1C)NC(=O)C(C)O2 (stereo not drawn)
1070 s | Cc1sc2ccn(CC(C)C)c(=O)c2c1C(=O)NCc1cc(F)cc(F)c1
780 s | Cc1ccc(SCC(=O)Nc2nnc(Cc3ccc4c(c3)OCO4)o2)cc1
945 s | Cc1ccc2c(c1)N(S(C)(=O)=O)CCC(C(=O)Nc1cccc(C)c1C)O2 (stereo not drawn)
700 s | COc1ccc(CCNC(=O)Cn2nc3c(Oc4ccccc4)nccn3c2=O)cc1OC
594 s | Cc1ccc(-c2ccc(N3CCCC(C(=O)NCCN4CCC(C)CC4)C3)nn2)cc1 (stereo not drawn)
603 s | COc1ccccc1NC(=O)N1CCN(C2=CC3=NC(C)CN3C=N2)CC1 (stereo not drawn)
688 s | CC(=O)Nc1ccc(-n2cnc(C(=O)N3CCN(c4ccc(F)cc4)CC3)c2)nc1
814 s | CCc1noc(NC(C)=O)c1-c1ccc(C)c(S(=O)(=O)NCc2ccc(F)cc2)c1
645 s | CCn1cc(S(=O)(=O)NCCc2noc(-c3ccncc3)n2)cn1

RP-LC retention time | SMILES
1060 s | COc1cccc(-c2cc(C(=O)NCCC3=CCCCC3)n(C)n2)c1
834 s | CCCn1c(=O)c2cc(C(=O)NCc3ccc(F)cc3Cl)nn2c2ccccc21
883 s | CCCN1C(=O)c2c(C(=O)NCc3ccccc3C)ncn2CC1(C)C(=O)NCCC(C)C (stereo not drawn)
1040 s | Cc1c(C(=O)NCc2ccccc2Br)cc(-c2ccccc2)n1C
1100 s | CCCc1ccc(S(=O)(=O)N2CCC(n3cnc4ccc(C)cc4c3=O)CC2)cc1
990 s | CS(=O)(=O)N1CCC(C(=O)Nc2ccc(Br)cc2F)Oc2ccccc21 (stereo not drawn)
936 s | CCOc1ccc(-c2noc(CN3N=NC4C(=O)N(c5ccc(F)cc5)C(=O)C43)n2)cc1OC (stereo not drawn)
741 s | CC(=O)c1ccc2c(c1)N(CCCN(C)C)c1ccccc1S2
588 s | Cc1noc(C)c1CN1CCN(C(=O)c2ccc3ccccc3n2)CC1
676 s | Cn1c(N2CCCC(C(=O)NCc3cccc(F)c3)C2)cc(=O)n(C)c1=O (stereo not drawn)
577 s | O=C(NCc1ccccn1)C1CCN(c2cc(Oc3ccccc3)ncn2)CC1
717 s | CCC(=O)N1CCc2sc(C(=O)N3CCN(c4ccc(OC)cc4)CC3)cc2C1
774 s | Cc1cc2c(cc1S(=O)(=O)N1CCCC1C(=O)Nc1ccc(F)cc1F)OCC(=O)N2 (stereo not drawn)
582 s | CO[C@H]1C(=O)N(C2CCN(C(=O)Nc3ccc4c(c3)OCCO4)CC2)[C@H]1c1ccncc1
1120 s | Cc1nc2cc(-c3noc(Cc4ccccc4Br)n3)ccc2o1
1170 s | Cc1ccc(NC(=O)Cn2nc(N3CCSCC3)c3ccccc3c2=O)cc1
971 s | Cc1ccc(S(=O)(=O)N2CCc3c(c(-c4nnc(-c5ccc(F)cc5)o4)nn3C)C2)cc1
848 s | CCC(=O)c1cn(CC(=O)NC(C)c2ccc3c(c2)OCCCO3)c2ccccc12 (stereo not drawn)
659 s | CCCC(=O)NC1CCN(c2ccc(F)cc2)C1=O (stereo not drawn)
726 s | CN(C)c1ccc(-c2nc3ncccn3c2NCc2ccccc2)cc1
677 s | CCOC(=O)C1CCN(C(=O)c2n[nH]c(=O)c3ccccc23)CC1

RP-LC retention time | SMILES
827 s | Cc1nc2sc(C)c(C)n2c(=O)c1NC(=O)COc1ccc(Cl)cc1Cl
570 s | O=C(CCC1CCCN(c2cc(NC3CC3)ncn2)C1)NC1CCN(Cc2ccccc2)CC1 (stereo not drawn)
643 s | NS(=O)(=O)c1ccc(CCNCc2ccc(-c3ccc(F)cc3)o2)cc1
950 s | CCOC(=O)c1cccc(Nc2c(-c3ccc(SC)cc3)nc3cnccn23)c1
895 s | COc1ccccc1N1CCN(c2cc(SCC(=O)Nc3cccc(C#N)c3)ncn2)CC1
1110 s | Cc1csc(-c2cc(S(=O)(=O)Nc3cc(Cl)ccc3C)c(C)s2)n1
965 s | Cc1nn(-c2ccccc2)c(C)c1S(=O)(=O)N1CCC(C(=O)NC2CCCCCC2)CC1
1160 s | CCc1ccc(Oc2cc(N3CCC(C(=O)Nc4ccc(C)c(C)c4)CC3)ncn2)cc1
1240 s | CCC(C)n1c(=O)c2ccccc2n(Cc2nc(-c3ccc(C)cc3)no2)c1=O (stereo not drawn)
611 s | COc1ccc(CCN2CC(C(=O)O)CC2=O)cc1OC (stereo not drawn)
816 s | O=C(CSc1nccn(-c2ccc(F)c(F)c2)c1=O)NCc1ccccc1Cl
903 s | C=CCNC(=O)c1cnn(-c2ccc(-c3nc(C(C)C)no3)cn2)c1C
903 s | C=CCN1C(=O)COc2ccc(-c3nc(NC(=O)c4ccco4)sc3C)cc21
716 s | CCN1CCn2cc(S(=O)(=O)Nc3ccc(OC)cc3C)cc2C1=O
1200 s | CCCCOc1ccc(-c2nc(C3CC(=O)N(c4ccc(OC)cc4)C3)no2)cc1 (stereo not drawn)
693 s | COc1ccccc1NC(=O)c1cccc(N2CCNC(c3ccccc3)C2)n1 (stereo not drawn)
605 s | COc1ccc(CNC(=O)c2cn3ccccc3n2)cc1OC
708 s | CCC1Oc2ccc(C)cc2N(CC(=O)NCCCN2CC(C)CC(C)C2)C1=O (stereo not drawn)
1040 s | COc1ccc(-c2nnc(Cc3nc(-c4ccc(SC)cc4)no3)o2)cc1
730 s | Cc1c(C(=O)O)nnn1-c1ccc(C(F)(F)F)cc1
630 s | Cc1cnc(C(=O)N2CCC(c3noc(-c4cnccn4)n3)C2)cn1 (stereo not drawn)

RP-LC retention time | SMILES
612 s | COCC1(O)CCOC2(CCN(Cc3cccc(Cl)c3)CC2)C1 (stereo not drawn)
864 s | Cc1ccc(NC(=O)c2ccc3[nH]c4c(c3c2)CN(C(=O)C2CCC2)CC4)cc1
671 s | CN(C1CCc2nn(C)c(=O)n2CC1)S(=O)(=O)c1cccc2cccnc12 (stereo not drawn)
802 s | Cn1nc(C(=O)N2C[C@@H](Oc3ccccc3)C[C@H]2C(=O)NC2CC2)c2ccccc21
690 s | O=C(Cn1nc2nc(N3CCCC3)ccn2c1=O)NCc1ccc(Cl)cc1
738 s | CCNC(=O)c1nc(-c2ccc(C)cc2)n2c1CCCCC2
679 s | Cn1c(C2CCN(C(=O)c3ccc(Br)cc3)CC2)cc(=O)n2nccc12
1240 s | O=C(O)c1ccc2cc(-c3ccc(O)c(C4C5CC6CC(C5)CC4C6)c3)ccc2c1 (stereo not drawn)
835 s | Cc1ccc(S(=O)(=O)N2CCCN(c3ccc(=O)n(-c4ccccc4)n3)CC2)cc1
680 s | Cc1ccc(NC(=O)Cn2c(N3CCOCC3)nc(C)cc2=O)cc1
674 s | CC1(C(=O)NCc2cc(F)ccc2F)CCCCC(=O)N1 (stereo not drawn)
756 s | Cc1c(Cl)cccc1NC(=O)CC1COc2ccccc2NC1=O (stereo not drawn)
624 s | CCCc1cc(N2CCN(C(=O)c3ccc4c(c3)OCO4)CC2)nc2nnc(C)n12
903 s | CCc1ccc(Oc2cc(N3CCC(C(=O)NCCCOC(C)C)CC3)ncn2)cc1
922 s | CCOC(=O)c1ccccc1NC(=O)CCCn1nc(-c2ccc(F)cc2)ccc1=O
841 s | CCOC(=O)c1c(S(=O)(=O)N2CCC(C(=O)Nc3ccc(C)c(C)c3)CC2)c(C)n(C)c1C
587 s | CCCC(=O)Nc1ccc2nc(N3CCN(CC(=O)N4CCCCCC4)CC3)cc(C(=O)O)c2c1
960 s | Cc1cccc(OCC(=O)N(Cc2ccc(Br)o2)C2CCS(=O)(=O)C2)c1C (stereo not drawn)
691 s | O=C(c1cnccn1)N1CC(c2nc(CCOCC3CC3)no2)C1
1200 s | Cc1cccc(-c2noc(Cc3nc(-c4ccc5c(c4)OCO5)cs3)n2)c1
662 s | CCCN1CCN(C(=O)CSc2nccnc2Sc2ccccc2)CC1

SMILES | RP-LC retention time
CCN1C[C@]2(OC(=O)c3ccccc3NC(C)=O)CCC(OC)[C@@]34C5C[C@@H]6C(OC)C[C@](O)([C@@H](CC23)[C@@H]14)C5(O)[C@H]6OC (stereo partly drawn) | 760 s
Oc1ccc2c3c1O[C@H]1c4oc5ccccc5c4C[C@@]4(O)C(C2)N(CC2CC2)CCC314 (stereo partly drawn) | 702 s
CCn1cc(CCN2CCN(C(=O)Cc3cccs3)CC2)c2cccnc21 | 590 s
Cc1cccc(Cc2cnc[nH]2)c1C | 667 s
